Test results as given in patent publication US20170209434A1, “PROTEIN PHOSPHATASE 2A INHIBITORS FOR TREATING MYELODYSPLASTIC SYNDROMES” (priority 2014, published 2017).

How the values were obtained:
del(5q) patient BM MNCs = experiment: Apoptosis of del(5q) patient BM MNCs; format: cell-based
Protocol: FIG. 6 is a bar graph showing percentage of primary BM MNCs from a Del(5q) patient undergoing apoptosis after treatment with 0.1 μM, 1.0 μM, or 10 μM lenalidomide (grey) or 0.1 μM, 1.0 μM, or 10 μM LB-100 (black), compared to a control.

non-del(5q) MDS = experiment: Additional studies of efficacy in non-del(5q) MDS (Example 3); format: in vivo; settings: subject afflicted with non-del(5q) MDS
Protocol: (§1) Additional studies, similar to the aforementioned Phase I design, are conducted to evaluate the efficacy of LB-100, alone or in combination with lenalidomide, in patients with del(5q) MDS or non-del(5q) MDS.
An amount of LB-100 is administered to a subject afflicted with non-del(5q) MDS. […] An amount of LB-100 in combination with lenalidomide is administered to a subject afflicted with non-del(5q) MDS.

[1] = test system: MDS that is resistant to lenalidomide; experiment: Additional studies of efficacy in lenalidomide-resistant MDS (Example 3); format: in vivo
Protocol: as §1

Namalwa cells [2] = experiment: Apoptosis of Namalwa cells; format: cell-based; settings: for Percent Apoptosis: dissolved in MSG
Protocol: FIG. 3 is a bar graph showing percentage of Namalwa cells undergoing apoptosis after treatment with 0.1 μM, 1.0 μM or 10 μM LB-100 dissolved in DMSO (grey) or MSG (black) compared to control and vehicle.
FIGS. 4A to 4D are a series of flow cytometry plots showing percentage of Namalwa cells undergoing apoptosis after treatment with control (FIG. 4A), 0.1 μM (FIG. 4B), 1.0 μM (FIG. 4C), or 10 μM (FIG. 4D) LB-100.

del(5q) MDS = experiment: Additional studies of efficacy in del(5q) MDS (Example 3); format: in vivo; settings: subject afflicted with del(5q) MDS
Protocol: as §1
An amount of LB-100 is administered to a subject afflicted with del(5q) MDS. […] An amount of LB-100 in combination with lenalidomide is administered to a subject afflicted with del(5q) MDS.

HL60 cells = experiment: MTT assay, HL60 cell proliferation; format: cell-based; settings: 72 hours, significant difference at 1 μM
Protocol: (§2) FIG. 7A is a graph showing proliferation of HL60 cells 72 hours after treatment with 0.001 μM, 0.01 μM, 0.1 μM, 1.0 μM, 10 μM, or 100 μM LB-100 (grey) or 0.001 μM, 0.01 μM, 0.1 μM, 1.0 μM, 10 μM, or 100 μM lenalidomide (black), compared to control or vehicle. FIGS. 7B to 7C are graphs showing proliferation of Namalwa cells 72 hours after treatment with 0.001 μM, 0.01 μM, 0.1 μM, 1.0 μM, 10 μM, or 100 μM LB-100 (♦), 0.001 μM, 0.01 μM, 0.1 μM, 1.0 μM, 10 μM, or 100 μM lenalidomide (▪), or 0.001 μM, 0.01 μM, 0.1 μM, 1.0 μM, 10 μM, or 100 μM cantharidin (▴), compared to control or vehicle.
(§3) HL60 cells and U937 cells were compared (FIGS. 8A and 8B).

Namalwa cells [3] = experiment: Cell cycle analysis of Namalwa cells treated with LB-100; format: cell-based; settings: for G1 / G2/M / S / Percent G1: 24 hours
Protocol: FIG. 1 is a bar graph showing percent of Namalwa cells in G1 arrest 24 hours after treatment with 0.1 μM, 1.0 μM or 10 μM LB-100 dissolved in DMSO (grey) or MSG (black) compared to control and vehicle.
FIG. 2 is a bar graph showing percent of Namalwa cells in G1 arrest 24 hours after treatment with 0.1 μM, 1.0 μM or 10 μM LB-100 compared to control.

Namalwa cells [4] = experiment: MTT assay, Namalwa cell proliferation; format: cell-based; settings: 72 hours
Protocol: as §2, §3

protein phosphatase 2A = protein phosphatase 2A (Homo sapiens, UniProt P67775); settings: cited from earlier work
Chain of protein phosphatase 2A (P67775 whole entry): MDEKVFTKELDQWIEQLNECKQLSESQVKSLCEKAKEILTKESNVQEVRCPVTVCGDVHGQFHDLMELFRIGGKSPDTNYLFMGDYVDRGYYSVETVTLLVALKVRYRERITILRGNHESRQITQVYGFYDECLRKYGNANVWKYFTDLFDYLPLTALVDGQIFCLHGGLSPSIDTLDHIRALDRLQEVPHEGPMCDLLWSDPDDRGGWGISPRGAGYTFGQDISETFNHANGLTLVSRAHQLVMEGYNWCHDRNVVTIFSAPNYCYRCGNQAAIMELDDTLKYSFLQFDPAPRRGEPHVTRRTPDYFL

[5] = test system: Non-del(5q) patient BM MNCs; experiment: Apoptosis of non-del(5q) patient BM MNCs; format: cell-based; settings: FIG. 5, 0.1-10 μM
non-del (5q) MDS = settings: cited from earlier work
del(5q) MDS patients = settings: cited from earlier work
protein phosphatase 1 = settings: cited from earlier work

SMILES: CN1CCN(C(=O)C2C(C(=O)O)[C@H]3CC[C@@H]2O3)CC1 (stereo partly drawn) [LB100]
- Apoptosis, dose dependence (in words) (del(5q) patient BM MNCs; FIG. 6, 0.1-10 μM): induced apoptosis in a dose dependent fashion
- Apoptosis (in words) (del(5q) patient BM MNCs; at 1 μM): mild increase in apoptosis
- Cytotoxicity compared with lenalidomide (in words) (del(5q) patient BM MNCs; at 10 μM): more cytotoxic than lenalidomide
- Efficacy in treating non-del(5q) MDS (in words) (non-del(5q) MDS): effective to treat
- Efficacy in treating MDS resistant to lenalidomide (in words) [1]: effective to treat
- Percent Apoptosis (Namalwa cells [2]; 0.1 μM): 6.18%
- Percent Apoptosis (Namalwa cells [2]; 1.0 μM): 6.5%
- Percent Apoptosis (Namalwa cells [2]; 10 μM): 55.8%
- Apoptosis (in words) (Namalwa cells [2]; at 10 μM when dissolved in MSG): led to apoptosis
- Efficacy in treating del(5q) MDS (in words) (del(5q) MDS): effective to treat
- Proliferation in comparison to treatment with lenalidomide (in words) (HL60 cells): significant decreased proliferation
- G1 (Namalwa cells [3]; 0.1 μM, dissolved in DMSO): 17.73%
- G2/M (Namalwa cells [3]; 0.1 μM, dissolved in DMSO): 16.51
- S (Namalwa cells [3]; 0.1 μM, dissolved in DMSO): 65.76
- G1 (Namalwa cells [3]; 0.1 uM, dissolved in MSG): 18.69%
- G2/M (Namalwa cells [3]; 0.1 uM, dissolved in MSG): 17.93
- S (Namalwa cells [3]; 0.1 uM, dissolved in MSG): 63.37
- G1 (Namalwa cells [3]; 1.0 μM, dissolved in DMSO): 18.38%
- G2/M (Namalwa cells [3]; 1.0 μM, dissolved in DMSO): 18.22
- S (Namalwa cells [3]; 1.0 μM, dissolved in DMSO): 63.41
- G1 (Namalwa cells [3]; 1.0 uM, dissolved in MSG): 41.48%
- G2/M (Namalwa cells [3]; 1.0 uM, dissolved in MSG): 6.96
- S (Namalwa cells [3]; 1.0 uM, dissolved in MSG): 51.56
- G1 (Namalwa cells [3]; 10 μM, dissolved in DMSO): 28.97%
- G2/M (Namalwa cells [3]; 10 μM, dissolved in DMSO): 8.9
- S (Namalwa cells [3]; 10 μM, dissolved in DMSO): 62.13
- G1 (Namalwa cells [3]; 10 uM, dissolved in MSG): 46.34%
- G2/M (Namalwa cells [3]; 10 uM, dissolved in MSG): 8.5
- S (Namalwa cells [3]; 10 uM, dissolved in MSG): 45.15
- G2/M (Namalwa cells [3]; Table 2, 0.1 μM): 12.06%
- Percent G1 (Namalwa cells [3]; Table 2, 0.1 μM): 24.01%
- S (Namalwa cells [3]; Table 2, 0.1 μM): 63.93%
- G2/M (Namalwa cells [3]; Table 2, 1.0 μM): 20.8%
- Percent G1 (Namalwa cells [3]; Table 2, 1.0 μM): 31.35%
- S (Namalwa cells [3]; Table 2, 1.0 μM): 47.85%
- G2/M (Namalwa cells [3]; Table 2, 10 μM): 6.13%
- Percent G1 (Namalwa cells [3]; Table 2, 10 μM): 51.18%
- S (Namalwa cells [3]; Table 2, 10 μM): 42.69%
- G1 arrest, dose dependence (in words) (Namalwa cells [3]; Table 2 and FIG. 2, 0.1-10 μM): led to G1 arrest in a dose-dependent fashion
- G1 arrest (in words) (Namalwa cells [3]; at 10 μM in DMSO): led to G1 arrest
- G1 arrest (in words) (Namalwa cells [3]; at 1 and 10 μM in MSG): led to G1 arrest
- Proliferation in comparison to control (in words) (Namalwa cells [4]): significant decrease in proliferation
- PP2A inhibition (in words) (protein phosphatase 2A): greater potency than lenalidomide
- Apoptosis (in words) [5]: did not lead to apoptosis

SMILES: Nc1cccc2c1CN(C1CCC(=O)NC1=O)C2=O (stereo not drawn) [Lenalidomide, lenalidomide]
- transfusion independence (TI), % of patients (non-del (5q) MDS): 26%
- transfusion independence (TI), % of patients (del(5q) MDS patients; lower risk MDS patients with del(5q)): 67%
- duration of response, median (del(5q) MDS patients; patients with del5q MDS): 2.5 years

SMILES: C=C1[C@@H](O)[C@@H]2O[C@]3(CC[C@H](/C=C/[C@@H](C)[C@@H]4CC(C)=C[C@@]5(O[C@H](C[C@@](C)(O)C(=O)O)CC[C@H]5O)O4)O3)CC[C@H]2O[C@@H]1[C@@H](O)C[C@H](C)[C@H]1O[C@@]2(CCCCO2)CC[C@H]1C [Okadaic acid, 9,10-Deepithio-9,10-didehydroacanthifolicin]
- IC50 (protein phosphatase 1): 3 to 15 nM
- IC50 (protein phosphatase 2A): 0.1 to 1 nM
- Selectivity over PP2B, PP2C and a range of other phosphatases (in words) (protein phosphatase 2A): highly selective

SMILES: C[C@@]12C(=O)OC(=O)[C@]1(C)[C@H]1CC[C@@H]2O1 [cantharidin]
- PP2A inhibition (in words) (protein phosphatase 2A): potent and selective inhibitor of PP2A
